Values joined by “and” are separate entries in the source; they are usually repeats but may differ in a detail not shown here. Identical values can stand only once. Toxic doses and inconclusive results are not listed. Rule as the data show it: active = T/C of 150% or more; inactive = T/C below 125%.
Tested on: L1210 leukemia ip in BDF1 mice, survival T/C
Experiment: NCI In Vivo Anticancer Drug Screen. Data for tumor model L1210 Leukemia (intraperitoneal) in B6D2F1 (BDF1) mice
Settings: endpoint: mean survival time, higher = longer survival
Summary of the method: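 Read-out is survival time, reported as the treated-group measurement over the vehicle-control measurement.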

[1] = dose: 200.0 mg/kg/injection, schedule: Q01DX009 (ip), vehicle: Klucel (hydroxypropylcellulose) (HPC)
[2] = dose: 100.0 mg/kg/injection, schedule: Q04DX003 (ip), vehicle: saline with Tween-80
[3] = dose: 200.0 mg/kg/injection, schedule: Q04DX003 (ip), vehicle: saline with Tween-80
[4] = dose: 100.0 mg/kg/injection, schedule: Q01DX009 (ip), vehicle: Klucel (hydroxypropylcellulose) (HPC)
[5] = dose: 400.0 mg/kg/injection, schedule: Q01DX009 (ip), vehicle: Klucel (hydroxypropylcellulose) (HPC)
[6] = dose: 400.0 mg/kg/injection, schedule: Q04DX003 (ip), vehicle: saline with Tween-80
[7] = dose: 100.0 mg/kg/injection, schedule: Q04DX003 (ip), vehicle: Klucel (hydroxypropylcellulose) (HPC)
[8] = dose: 200.0 mg/kg/injection, schedule: Q04DX003 (ip), vehicle: Klucel (hydroxypropylcellulose) (HPC)
[9] = dose: 400.0 mg/kg/injection, schedule: Q04DX003 (ip), vehicle: Klucel (hydroxypropylcellulose) (HPC)
[10] = dose: 100.0 mg/kg/injection, schedule: Q01DX009 (ip), vehicle: saline
[11] = dose: 200.0 mg/kg/injection, schedule: Q01DX009 (ip), vehicle: saline
[12] = dose: 400.0 mg/kg/injection, schedule: Q01DX009 (ip), vehicle: saline

Measured: T/C

NC(=O)NN=C1CSSC1
inactive: dose: 1.56 mg/kg/injection, schedule: Q01DX009 (ip), vehicle: saline with Tween-80 101 % of control | dose: 3.12 mg/kg/injection, schedule: Q01DX009 (ip), vehicle: saline with Tween-80 99 % of control | dose: 6.25 mg/kg/injection, schedule: Q01DX009 (ip), vehicle: saline with Tween-80 94 % of control | dose: 6.25 mg/kg/injection, schedule: Q04DX003 (ip), vehicle: saline with Tween-80 97 % of control | dose: 12.5 mg/kg/injection, schedule: Q01DX009 (ip), vehicle: saline with Tween-80 98 % of control and 106 % of control | dose: 12.5 mg/kg/injection, schedule: Q04DX003 (ip), vehicle: saline with Tween-80 97 % of control

Cc1cc(C)nc(NS(=O)(=O)c2ccc(N=Nc3nc4[nH]c(N)nc(=S)c4[nH]3)cc2)n1
active: dose: 6.25 mg/kg/injection, schedule: Q01DX009 (ip), vehicle: Klucel (hydroxypropylcellulose) (HPC) 151 % of control and 177 % of control | dose: 12.5 mg/kg/injection, schedule: Q01DX009 (ip), vehicle: Klucel (hydroxypropylcellulose) (HPC) 153 % of control
inactive: dose: 25.0 mg/kg/injection, schedule: Q01DX009 (ip), vehicle: Klucel (hydroxypropylcellulose) (HPC) 112 % of control | [1] 102 % of control

CC(=O)OC1CCC2(C)C3=C(CCC2C1(C)C)C1(C)CCC(c2ccc(C(C)C)oc2=O)C1(C)CC3 (stereo not drawn)
inactive: dose: 100.0 mg/kg/injection, schedule: Q01DX001 (sc), vehicle: steriod suspending solution 103 % of control | dose: 200.0 mg/kg/injection, schedule: Q01DX001 (sc), vehicle: steriod suspending solution 106 % of control | dose: 400.0 mg/kg/injection, schedule: Q01DX001 (sc), vehicle: steriod suspending solution 103 % of control

NC(CSS(=O)(=O)O)=NCCSc1ccccc1
inactive: dose: 12.5 mg/kg/injection, schedule: Q04DX002 (ip), vehicle: Klucel (hydroxypropylcellulose) (HPC) 95 % of control | dose: 25.0 mg/kg/injection, schedule: Q04DX002 (ip), vehicle: Klucel (hydroxypropylcellulose) (HPC) 106 % of control | dose: 50.0 mg/kg/injection, schedule: Q04DX002 (ip), vehicle: Klucel (hydroxypropylcellulose) (HPC) 106 % of control

Nc1ncnc(N)c1NC(=O)Cc1ccccc1
inactive: dose: 100.0 mg/kg/injection, schedule: Q01DX001 (ip), vehicle: saline with Tween-80 98 % of control | dose: 200.0 mg/kg/injection, schedule: Q01DX001 (ip), vehicle: saline with Tween-80 97 % of control | dose: 400.0 mg/kg/injection, schedule: Q01DX001 (ip), vehicle: saline with Tween-80 98 % of control

NNC(=O)CCc1ccccc1Br
inactive: [2] 99 % of control | [3] 92 % of control

CN(C)C=C1C(=O)c2ccccc2C1=O
inactive: [2] 105 % of control | [3] 107 % of control

CCOC(=O)c1ccc(NC(=O)Nc2ccccc2C(=O)OC)cc1
inactive: [4] 110 % of control | [1] 100 % of control | [5] 94 % of control

COc1cccc(C(=O)c2ccccc2NC(C)=O)c1
inactive: [2] 93 % of control | [3] 94 % of control | [6] 93 % of control

Cc1cc(C)c(NC(=O)c2cccc(C(=O)Nc3c(C)cc(C)cc3C)c2)c(C)c1
inactive: [4] 102 % of control | [7] 91 % of control | [1] 104 % of control | [8] 88 % of control | [5] 96 % of control | [9] 88 % of control

O=C(CC(CC(=O)c1ccccc1)c1ccncc1)c1ccccc1
inactive: dose: 50.0 mg/kg/injection, schedule: Q01DX001 (ip), vehicle: carboxymethylcellulose (CMC) 95 % of control | dose: 200.0 mg/kg/injection, schedule: Q01DX001 (ip), vehicle: carboxymethylcellulose (CMC) 90 % of control | dose: 400.0 mg/kg/injection, schedule: Q01DX001 (ip), vehicle: carboxymethylcellulose (CMC) 86 % of control

CCn1c2ccccc2c2cc(C=O)ccc21
inactive: dose: 25.0 mg/kg/injection, schedule: Q01DX009 (ip), vehicle: other 95 % of control | dose: 50.0 mg/kg/injection, schedule: Q01DX009 (ip), vehicle: other 98 % of control and 106 % of control | dose: 100.0 mg/kg/injection, schedule: Q01DX009 (ip), vehicle: other 88 % of control | dose: 200.0 mg/kg/injection, schedule: Q01DX009 (ip), vehicle: other 94 % of control

O=C(OCC1OC(n2cnc3c(=S)nc[nH]c32)C(OC(=O)c2ccccc2)C1OC(=O)c1ccccc1)c1ccccc1 (stereo not drawn)
active: [10] 168 % of control | dose: 220.0 mg/kg/injection, schedule: Q01DX009 (ip), vehicle: saline 150 % of control | dose: 300.0 mg/kg/injection, schedule: Q01DX Z (ip), vehicle: carboxymethylcellulose (CMC) 150 % of control and 168 % of control | dose: 450.0 mg/kg/injection, schedule: Q01DX Z (ip), vehicle: carboxymethylcellulose (CMC) 171 % of control
inactive: dose: 25.0 mg/kg/injection, schedule: Q01DX009 (ip), vehicle: saline 118 % of control | dose: 25.0 mg/kg/injection, schedule: Q01DX Z (ip), vehicle: saline 109 % of control | dose: 39.0 mg/kg/injection, schedule: Q01DX Z (ip), vehicle: carboxymethylcellulose (CMC) 124 % of control | dose: 50.0 mg/kg/injection, schedule: Q01DX Z (ip), vehicle: saline 117 % of control | dose: 88.0 mg/kg/injection, schedule: Q01DX Z (ip), vehicle: carboxymethylcellulose (CMC) 118 % of control | dose: 110.0 mg/kg/injection, schedule: Q01DX009 (ip), vehicle: saline 123 % of control | dose: 222.0 mg/kg/injection, schedule: Q01DX Z (ip), vehicle: saline 95 % of control | dose: 300.0 mg/kg/injection, schedule: Q01DX Z (ip), vehicle: methylcellulose (MC) 112 % of control | dose: 450.0 mg/kg/injection, schedule: Q01DX Z (ip), vehicle: methylcellulose (MC) 97 % of control | dose: 600.0 mg/kg/injection, schedule: Q01DX001 (ip), vehicle: saline 120 % of control | dose: 675.0 mg/kg/injection, schedule: Q01DX Z (ip), vehicle: carboxymethylcellulose (CMC) 100 % of control and 109 % of control | dose: 1007.0 mg/kg/injection, schedule: Q01DX Z (ip), vehicle: carboxymethylcellulose (CMC) 93 % of control | dose: 1510.0 mg/kg/injection, schedule: Q01DX Z (ip), vehicle: carboxymethylcellulose (CMC) 90 % of control

CC1(C)CCC(CC(=O)O)(CC(=O)O)CC1
inactive: [2] 95 % of control | [6] 92 % of control

COC(=O)CCC(C)(C)[N+](=O)[O-]
inactive: [10] 113 % of control | [11] 104 % of control | [12] 102 % of control

CC[CH2][Sn]([Br])([CH2]CC(=O)OC)[CH2]CC(=O)OC
inactive: dose: 100.0 mg/kg/injection, schedule: Q04DX002 (ip), vehicle: saline with Tween-80 93 % of control | dose: 200.0 mg/kg/injection, schedule: Q04DX002 (ip), vehicle: saline with Tween-80 96 % of control

CCCCCCCCC(=O)NCc1cccc(OC)c1
inactive: [7] 95 % of control | [8] 95 % of control | [9] 105 % of control

CC(C)CC(NC(=O)C(F)(F)F)C(=O)O (stereo not drawn)
inactive: [2] 97 % of control | [3] 90 % of control

CCN(CC)C(=S)[S][Pb]([S]C(=S)N(CC)CC)([c]1ccccc1)[c]1ccccc1
inactive: dose: 100.0 mg/kg/injection, schedule: Q01DX001 (ip), vehicle: steriod suspending solution 97 % of control | dose: 200.0 mg/kg/injection, schedule: Q01DX001 (ip), vehicle: steriod suspending solution 98 % of control | dose: 400.0 mg/kg/injection, schedule: Q01DX001 (ip), vehicle: steriod suspending solution 100 % of control

CCN(CC)C(=O)c1ccccc1C(=O)O
inactive: [4] 94 % of control | [1] 92 % of control | [5] 92 % of control

Cc1cc(C)c(B2OB(c3c(C)cc(C)cc3C)O2)c(C)c1
inactive: [4] 95 % of control | [7] 96 % of control | [1] 97 % of control | [8] 103 % of control | [9] 91 % of control

C=C1C=C(C)N(C(C)=O)CCN1C(C)=O
inactive: [10] 95 % of control | [11] 92 % of control | [12] 90 % of control

Cc1ccc(S(C)=O)cc1 (stereo not drawn)
inactive: dose: 100.0 mg/kg/injection, schedule: Q01DX001 (ip), vehicle: saline 102 % of control | dose: 200.0 mg/kg/injection, schedule: Q01DX001 (ip), vehicle: saline 95 % of control | dose: 400.0 mg/kg/injection, schedule: Q01DX001 (ip), vehicle: saline 95 % of control

COc1cc2c(c(OC)c1OC)-c1ccc(=O)c(OC)cc1[C@@H](NC(=O)CCl)CC2
inactive: dose: 100.0 mg/kg/injection, schedule: Q01DX001 (ip), vehicle: Klucel (hydroxypropylcellulose) (HPC) 94 % of control | [4] 103 % of control | dose: 200.0 mg/kg/injection, schedule: Q01DX001 (ip), vehicle: Klucel (hydroxypropylcellulose) (HPC) 98 % of control | [1] 103 % of control | dose: 400.0 mg/kg/injection, schedule: Q01DX001 (ip), vehicle: Klucel (hydroxypropylcellulose) (HPC) 105 % of control

Source: PubChem BioAssay AID248 (DTP/NCI, 2004)
